Results on 13 compounds are retold here after patent EP4703354A1, “COMPOUND AS CCR6 ANTAGONIST, AND PHARMACEUTICAL COMPOSITION AND USE THEREOF” (Wuhan Createrna Science and Technology Co.,Ltd., priority 2023, dated 2024).

Data set [1] can be described thus: in vitro liver microsome metabolic stability, rat. Format: in vitro ADME. To be noted: Rat liver microsomes, 37°C. The gist of the method:
(§1)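 Test compound at 1 µM final (100 µM working solution diluted 1:100) incubated at 37°C with liver microsomes in pH 7.4 phosphate buffer with NADP/G6P/G6PDH/MgCl2 regenerating system; sampled 0–30 min, LC-MS/MS vs internal standard. T1/2 = 0.693/k from remaining-fraction decay.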
On the technique in general: Microsomes from liver hold many membrane-bound enzymes, among them those of drug oxidation.

Data set [2] in a line: in vitro liver microsome metabolic stability, beagle dog. To be noted: Beagle dog liver microsomes, 37°C. The class given is in vitro ADME. The gist of the method: as §1
A short description of data set [3]: in vitro liver microsome metabolic stability, human. Format: in vitro ADME. To be noted: Human liver microsomes, 37°C. The gist of the method: as §1
The target of a further data set is T1, human CCR6 (Homo sapiens, UniProt P51684).
T1 construct: expressed in transfected cells; host or cells: HEK293
T1 sequence (P51684 1-374): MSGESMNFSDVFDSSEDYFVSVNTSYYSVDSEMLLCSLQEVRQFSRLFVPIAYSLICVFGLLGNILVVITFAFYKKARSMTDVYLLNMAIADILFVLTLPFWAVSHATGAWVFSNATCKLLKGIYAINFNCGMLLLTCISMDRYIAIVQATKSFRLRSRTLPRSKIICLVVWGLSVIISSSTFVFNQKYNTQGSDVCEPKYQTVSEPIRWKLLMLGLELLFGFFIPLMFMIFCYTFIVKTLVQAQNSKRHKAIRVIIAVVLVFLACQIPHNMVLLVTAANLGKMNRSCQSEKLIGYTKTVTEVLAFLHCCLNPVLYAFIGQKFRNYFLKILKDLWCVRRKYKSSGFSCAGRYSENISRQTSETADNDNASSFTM
Description: human CCR6 calcium flux activity (FLIPR, HEK293 cells stably expressing human CCR6, CCL20 stimulation). To be noted: for IC50: HEK293 cells stably expressing human CCR6, EC80 human MIP-3 alpha/CCL20, read-out: CCR6 inhibitory activity, IC50; for CCR6 selectivity: ratio of CXCR2 IC50 to CCR6 IC50. Format: cell-based. The gist of the method:
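Read-out is the RFUMax−RFUMin calcium signal (494/516 nm, 90 s) after EC80 CCL20 addition, fitted four-parameter for IC50. Before agonist, Fluo-4 Direct-loaded cells sat with compound 50 min at 37 °C plus 10 min at room temperature.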
On the technique in general: A change in cytosolic calcium serves as a functional read-out for many receptors and channels.

The target of the next data set is T2, human CXCR2 (Homo sapiens, UniProt P25025).
T2 construct: expressed in transfected cells; host or cells: HEK293
T2 sequence (P25025 1-360): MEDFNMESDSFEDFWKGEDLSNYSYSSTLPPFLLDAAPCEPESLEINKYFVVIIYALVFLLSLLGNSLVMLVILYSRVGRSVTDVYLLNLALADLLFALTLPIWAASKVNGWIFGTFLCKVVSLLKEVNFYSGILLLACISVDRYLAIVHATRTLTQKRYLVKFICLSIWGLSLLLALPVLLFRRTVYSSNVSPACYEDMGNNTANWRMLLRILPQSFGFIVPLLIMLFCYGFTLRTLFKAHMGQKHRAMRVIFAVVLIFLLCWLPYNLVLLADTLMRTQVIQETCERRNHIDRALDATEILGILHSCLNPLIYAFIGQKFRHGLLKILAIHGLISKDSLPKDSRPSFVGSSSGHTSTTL
Description: human CXCR2 calcium flux activity (FLIPR, HEK293 cells stably expressing human CXCR2, IL-8 stimulation). To be noted: HEK293 cells stably expressing human CXCR2, EC80 human IL-8; read-out: CXCR2 inhibitory activity, IC50. The class given is cell-based. On the procedure: The activity of the compounds was evaluated using HEK293 cells stably expressing human CXCR2 via the FLIPR platform. A 384-well black cell culture plate (Greiner, 781946) was used, with a seeding density of 20,000 cells/well, and incubated overnight at 37°C in a 5% CO2 incubator. The culture medium in the cell plate wells was removed, and 20 µL of Fluo-4 Direct™ Calcium Assay Buffer (Invitrogen, F10471, Component C), 20 µL of 2× Fluo-4 Direct™ Calcium Assay Reagent (Invitrogen, F10471, Component A) working solution, and 10 µL of 6× test compound working solution were sequentially added to each well. The cell plate was incubated in a 37 °C, 5% CO2 incubator for 50 min, followed by a 10 min incubation at room temperature. Additionally, a 6×EC80 human IL-8 (Sigma, SRP3311) working solution was prepared. After the incubation was completed, 10 µL/well of the 6×EC80 human IL-8 working solution was transferred to the corresponding cell wells using a FLIPR instrument, and the fluorescence signal changes at an excitation wavelength of 494 nm and an emission wavelength of 516 nm were recorded over 130 s. The difference between the maximum fluorescence signal (RFUMax) and the minimum fluorescence signal (RFUMin) was used as the output signal. The compound inhibition rate and the log value of the compound concentration were calculated, and a four-parameter fitting analysis was performed using GraphPad Prism 8 software to obtain the IC50 value of the test compound. Table 1. Inhibitory activity data of compounds against CCR6 and CXCR2

With `CN(C)C(=O)c1nccc(Nc2c(N[C@@H](c3ccc(Cl)cn3)C3(C)CCCC3)c(=O)c2=O)c1O` [compound 013, (R)-4-((2-(((5-chloropyridin-2-yl)(1-methylcyclopentyl)methyl)amino)-3,4-dioxocyclobut-1-en-1-yl)amino)-3-hydroxy-N,N-dimethylpicolinamide], in data set [1], the “Liver microsome T1-2 (min) Rat” value was 54.23 min. Also, the “Liver microsome T1-2 (min) Beagle dog” value in data set [2] worked out at 252.63 min. Moreover, the “Liver microsome T1-2 (min) Human” value in data set [3] amounted to 345.84 min. Also, the IC50 (usually the concentration needed to halve the response being measured) at human CCR6 was determined as 19.3 nM.
With `Cc1ccc(F)nc1[C@H](Nc1c(Nc2ccnc(C(=O)N(C)C)c2O)c(=O)c1=O)C1(C)CCCC1` [compound 014, (R)-4-((2-(((6-fluoro-3-methylpyridin-2-yl)(1-methylcyclopentyl)methyl)amino)-3,4-dioxocyclobut-1-en-1-yl)amino)-3-hydroxy-N,N-dimethylpicolinamide], at human CCR6, the IC50 amounted to 14.3 nM and the CCR6 selectivity was found to be 471.4. Further, the IC50 at human CXCR2 was found to be 6740 nM.
Consider `CN(C)C(=O)c1nccc(Nc2c(N[C@@H](c3ncccc3CF)C3(C)CCCC3)c(=O)c2=O)c1O` [compound 016, (R)-4-((2-(((3-(fluoromethyl)pyridin-2-yl)(1-methylcyclopentyl)methyl)amino)-3,4-dioxocyclobut-1-en-1-yl)amino)-3-hydroxy-N,N-dimethylpicolinamide], for which, at human CCR6, the IC50 is 55.8 nM and the CCR6 selectivity is 494.9. The IC50 on human CXCR2 was 27600 nM.
Regarding `CN(C)C(=O)c1nccc(Nc2c(N[C@@H](c3ncccc3Cl)C3(C)CCCC3)c(=O)c2=O)c1O` [compound 019, (R)-4-((2-(((3-chloropyridin-2-yl)(1-methylcyclopentyl)methyl)amino)-3,4-dioxocyclobut-1-en-1-yl)amino)-3-hydroxy-N,N-dimethylpicolinamide], on human CCR6, the IC50 was 5 nM and the CCR6 selectivity worked out at 364.2. In addition, the concentration for half-maximal inhibition (IC50) at human CXCR2 was 1820 nM.
Turning to `CN(C)C(=O)c1nccc(Nc2c(N[C@@H](c3nc(F)ccc3Cl)C3(C)CCCC3)c(=O)c2=O)c1O` [compound 025, (R)-4-((2-(((3-chloro-6-fluoropyridin-2-yl)(1-methylcyclopentyl)methyl)amino)-3,4-dioxocyclobut-1-en-1-yl)amino)-3-hydroxy-N,N-dimethylpicolinamide], on human CCR6, the IC50 stood at 2.8 nM and the CCR6 selectivity amounted to 282.4. Also, at human CXCR2, the IC50 was determined as 791 nM.
Taken in the same sequence, the figures for `Cc1ccc(C)c([C@H](Nc2c(Nc3ccnc(C(=O)N(C)C)c3O)c(=O)c2=O)C2(C)CCCC2)n1` [compound 051, (R)-4-((2-(((3,6-dimethylpyridin-2-yl)(1-methylcyclopentyl)methyl)amino)-3,4-dioxocyclobut-1-en-1-yl)amino)-3-hydroxy-N,N-dimethylpicolinamide] were 12.7 nM, 2469.1 and 31400 nM.
Taken in the same sequence, the figures for `CC1([C@@H](Nc2c(Nc3ccnc(C(=O)N4CCOCC4)c3O)c(=O)c2=O)c2nc(F)ccc2F)CCCC1` [compound 060, (R)-3-(((3,6-difluoropyridin-2-yl)(1-methylcyclopentyl)methyl)amino)-4-((3-hydroxy-2-(morpholine-4-carbonyl)pyridin-4-yl)amino)cyclobut-3-ene-1,2-dione] were 1.9 nM, 207.0 and 393 nM.
As to `CNC(=O)c1c(Cl)ccc(Nc2c(N[C@@H](c3ncccc3C)C3(C)CCCC3)c(=O)c2=O)c1O` [compound 064, (R)-6-chloro-2-hydroxy-N-methyl-3-((2-(((1-methylcyclopentyl)(3-methylpyridin-2-yl)methyl)amino)-3,4-dioxocyclobut-1-en-1-yl)amino)benzamide], at human CCR6, the IC50 is 6.5 nM and the CCR6 selectivity came to 1730.2. Further, at human CXCR2, the IC50 stood at 11200 nM.
In the case of `Cc1cc(F)cnc1[C@H](Nc1c(Nc2ccnc(C(=O)N(C)C(C)C)c2O)c(=O)c1=O)C1(C)CCCC1` [compound 066, (R)-4-((2-(((5-fluoro-3-methylpyridin-2-yl)(1-methylcyclopentyl)methyl)amino)-3,4-dioxocyclobut-1-en-1-yl)amino)-3-hydroxy-N-isopropyl-N-methylpicolinamide], the half-inhibitory concentration (IC50) was found to be 19 nM on human CCR6 and 47900 nM on human CXCR2. Moreover, the CCR6 selectivity at human CCR6 is on record as 2522.7.
Turning to `Cc1nccnc1[C@H](Nc1c(Nc2ccc(Cl)c(C(=O)N(C)C)c2O)c(=O)c1=O)C1(C)CCCC1` [compound 078, (R)-6-chloro-2-hydroxy-N,N-dimethyl-3-((2-(((1-methylcyclopentyl)(3-methylpyrazin-2-yl)methyl)amino)-3,4-dioxocyclobut-1-en-1-yl)amino)benzamide], the “Liver microsome T1-2 (min) Rat” value in data set [1] worked out at 53.62 min. Further, the “Liver microsome T1-2 (min) Beagle dog” value in data set [2] was determined as 1869.75 min. The “Liver microsome T1-2 (min) Human” value in data set [3] worked out at 1014.44 min. Besides, the IC50 at human CCR6 is 56.2 nM.
On to `CN(C)C(=O)c1nccc(Nc2c(N[C@@H](c3cccc(C(F)F)n3)C3(C)CCCC3)c(=O)c2=O)c1O` [compound 107, (R)-4-((2-(((6-(difluoromethyl)pyridin-2-yl)(1-methylcyclopentyl)methyl)amino)-3,4-dioxocyclobut-1-en-1-yl)amino)-3-hydroxy-N,N-dimethylpicolinamide], for which, on human CCR6, the half-maximal inhibitory concentration (IC50) amounted to 3.8 nM and the CCR6 selectivity is reported as 196.0. Besides, at human CXCR2, the half-maximal inhibitory concentration (IC50) was found to be 745 nM.
Regarding `CC#CC(Nc1c(Nc2ccnc(C(=O)N(C)C)c2O)c(=O)c1=O)C1(C)CCC(F)(F)C1` (stereo not drawn) [compound 111, 4-((2-((1-(3,3-difluoro-1-methylcyclopentyl)but-2-yn-1-yl)amino)-3,4-dioxocyclobut-1-en-1-yl)amino)-3-hydroxy-N,N-dimethylpicolinamide], the “Liver microsome T1-2 (min) Rat” value in data set [1] stood at 266.64 min. The “Liver microsome T1-2 (min) Beagle dog” value in data set [2] is recorded as 982.5 min. The “Liver microsome T1-2 (min) Human” value in data set [3] amounted to 548.28 min. Further, the IC50 on human CCR6 was 106 nM.
In the case of `CN(C)C(=O)c1nccc(Nc2c(N[C@@H](C#CC3CCC3)C3(C)CCCC3)c(=O)c2=O)c1O` [compound 116, (R)-4-((2-((3-cyclobutyl-1-(1-methylcyclopentyl)prop-2-yn-1-yl)amino)-3,4-dioxocyclobut-1-en-1-yl)amino)-3-hydroxy-N,N-dimethylpicolinamide], on human CCR6, the IC50 is 28.9 nM and the CCR6 selectivity is 13.1. Besides, on human CXCR2, the concentration for half-maximal inhibition (IC50) amounted to 379 nM.
